“Also recorded” adds a separate entry of the source. Like-named read-outs stand apart in the source and are kept apart here. Non-standard residues stand in square brackets, D forms with d. Residues, ends and D or L forms follow the SMILES beside them. ξ: configuration not given here. *: point of attachment. Dmt = Cc1cc(O)cc(C)c1C[C@H](N)C(=O)O; ξDmt = Cc1cc(O)cc(C)c1CC(N)C(=O)O; Tic = O=C(O)[C@@H]1Cc2ccccc2CN1; NHNH2 = NN*
Experiments:
δ receptors = δ receptors (Mus musculus, UniProt P32300)
Method: (§1) The functional bioactivity of the present inventive compounds was assessed using standard functional bioassays of δ and μ activity in MVD and GPI (Salvadori et al. (1995), supra; and Salvadori et al., J. Med. Chem. 36: 3748-3756 (1993)). […] Dose-response curves were obtained (Salvadori et al. (1995), supra) for both tissues. […] Data were derived from at least four independent tissue samples and dose-response curves from which the pA2 values were determined (Salvadori et al. (1997), supra) according to Arunlakshana and Schild (Br. J. Pharmacol. 14: 48-58 (1959)).

δ-opioid receptors [1] = molecular target: T1, δ-opioid receptors (Rattus norvegicus, UniProt P33533); experiment: Rat brain synaptosome (P2) binding, agonist [3H]DPDPE (Example 47); conditions: for Agonist K1μ/Kiδ: selectivity, Kiδ from agonist radioligand [3H]DPDPE; for δ/μ selectivity, in words / δ affinity, in words: from Table II binding
T1 construct: assayed with a rat brain synaptosomal preparation (P2); from tissue; host or cells: rat brain P2 synaptosomes
Method: (§2) Briefly, the agonists [^3H]DPDPE (30-60 Ci/mmol, NEN-DuPont) and [^3H]DAGO (30-60 Ci/mmol, Amersham) were used to label δ and μ sites, respectively, under saturation binding conditions (2 hrs at 22° C.). Excess unlabeled peptide (2 μM) established non-specific binding levels and the labeled membranes were rapidly filtered on Whatman GF/C glass fibre filters, thoroughly washed, dried and measured for radioactivity using CytoScint (ICN, Irvine, Calif.). […] The affinity constants (Ki) were calculated according to Cheng and Prusoff (Biochem. Pharmacol. 22: 3099-3108 (1973)).

δ-opioid receptors [2] = molecular target: T1, δ-opioid receptors; experiment: Rat brain synaptosome (P2) binding, δ antagonist [3H]N,N(CH3)2-Dmt-Tic-OH (Example 47); conditions: for Antagonist K1μ/Kiδ: selectivity, Kiδ from antagonist radioligand [3H]N,N(CH3)2-Dmt-Tic-OH
Method: as §2

μ-opioid receptors = molecular target: T2, μ-opioid receptors (Rattus norvegicus, UniProt P33535); experiment: Rat brain synaptosome (P2) binding, [3H]DAGO (Example 47)
T2 construct: assayed with a rat brain synaptosomal preparation (P2); from tissue; host or cells: rat brain P2 synaptosomes

μ receptors = μ receptors (Cavia porcellus, UniProt P97266); experiment: Guinea pig ileum (GPI) functional bioassay (Example 48)
Method: as §1

hMDR-1 = hMDR-1 (Homo sapiens, UniProt P08183); experiment: Calcein AM assay for Pgp in hMDR-1 transfected G-185 fibroblasts (Example 49); conditions: calcein fluorescence
Method: Stably transfected G-185 fibroblasts containing hMDR-1 and NIH 3T3 cell lines were grown to confluent monolayers in DMEM containing 4.5 g glucose/1, 10% fetal calf serum, L-glutamine, penicillin (50 units/ml), streptomycin (50 μg/ml) and 1 mM sodium pyruvate in 5% CO2 at 37° C. G-185 cells were maintained in […] colchicine.
The assay for Pgp is based on the diffusion of non-fluorescent calcein AM across the cell membrane. Calcein AM is then hydrolyzed and accumulates as the fluorescent calcein. In transfected cells expressing excess hMDR-1, Pgp extrudes calcein AM from the cell before hydrolysis occurs; inhibition of hMDR-1 results in the accumulation of intracellular calcein. Transfected G-185 cells and the NIH 3T3 cells were analyzed in triplicate using seven graded dosages of verapamil or the opioid peptides in 96-well plates. Cells (2.5×10^6/well) were incubated in 100 μl culture medium for 15 min at 37° C. and 50 μl of 1 μM calcein AM in PBS, plus 50 μl of verapamil or one of the present inventive compounds in PBS, or 100 μl of PBS alone (control) were added. Cells were mixed and incubated for 15 min at 37° C., then centrifuged for 5 min at 2,000×g, and then washed three times in 200 μl PBS. Cell pellets were resuspended in 200 μl PBS and transferred to white Microfluor Plates (Nunc, Copenhagen, Denmark) in order to measure calcein-specific fluorescence (494 nm absorption; 517 nm emission). Internal controls were carried out with each experiment using verapamil and PBS in order to compare the consistency between cell preparations. Means±SE (error bars) were determined and plotted using Prism™ (GraphPad, San Diego, Calif.).

[3] = MVD Ke(nM), δ antagonism, Ke = antilog of pA2
[4] = MVD pA2 (range), δ antagonism against deltorphin C, mean (range)
[5] = rat brain synaptosomes (P2), mean ± SEM, n in parentheses, read-out: Kiδ(nM) [^3H]DPDPE
[6] = rat brain synaptosomes (P2), δ antagonist radioligand, mean ± SEM, n in parentheses, read-out: Kiδ(nM) [^3H]N,N(CH3)2-Dmt-Tic-OH
[7] = rat brain synaptosomes (P2), mean ± SEM, n in parentheses, read-out: Kiμ (nM) [^3H]DAGO
[8] = δ antagonism, Ke = antilog of pA2

T2 sequence (P33535 whole entry): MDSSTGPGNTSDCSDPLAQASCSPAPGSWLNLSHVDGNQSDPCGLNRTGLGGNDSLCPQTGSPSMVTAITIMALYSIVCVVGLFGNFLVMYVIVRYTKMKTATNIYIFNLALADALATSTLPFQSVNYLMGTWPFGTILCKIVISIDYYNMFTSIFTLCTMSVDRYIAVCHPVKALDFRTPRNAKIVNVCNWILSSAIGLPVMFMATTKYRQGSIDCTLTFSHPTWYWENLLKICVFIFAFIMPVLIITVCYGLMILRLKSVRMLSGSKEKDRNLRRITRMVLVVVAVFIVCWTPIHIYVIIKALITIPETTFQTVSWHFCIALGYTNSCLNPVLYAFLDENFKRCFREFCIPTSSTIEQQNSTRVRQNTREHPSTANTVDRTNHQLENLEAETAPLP
Chain of hMDR-1 (P08183 whole entry): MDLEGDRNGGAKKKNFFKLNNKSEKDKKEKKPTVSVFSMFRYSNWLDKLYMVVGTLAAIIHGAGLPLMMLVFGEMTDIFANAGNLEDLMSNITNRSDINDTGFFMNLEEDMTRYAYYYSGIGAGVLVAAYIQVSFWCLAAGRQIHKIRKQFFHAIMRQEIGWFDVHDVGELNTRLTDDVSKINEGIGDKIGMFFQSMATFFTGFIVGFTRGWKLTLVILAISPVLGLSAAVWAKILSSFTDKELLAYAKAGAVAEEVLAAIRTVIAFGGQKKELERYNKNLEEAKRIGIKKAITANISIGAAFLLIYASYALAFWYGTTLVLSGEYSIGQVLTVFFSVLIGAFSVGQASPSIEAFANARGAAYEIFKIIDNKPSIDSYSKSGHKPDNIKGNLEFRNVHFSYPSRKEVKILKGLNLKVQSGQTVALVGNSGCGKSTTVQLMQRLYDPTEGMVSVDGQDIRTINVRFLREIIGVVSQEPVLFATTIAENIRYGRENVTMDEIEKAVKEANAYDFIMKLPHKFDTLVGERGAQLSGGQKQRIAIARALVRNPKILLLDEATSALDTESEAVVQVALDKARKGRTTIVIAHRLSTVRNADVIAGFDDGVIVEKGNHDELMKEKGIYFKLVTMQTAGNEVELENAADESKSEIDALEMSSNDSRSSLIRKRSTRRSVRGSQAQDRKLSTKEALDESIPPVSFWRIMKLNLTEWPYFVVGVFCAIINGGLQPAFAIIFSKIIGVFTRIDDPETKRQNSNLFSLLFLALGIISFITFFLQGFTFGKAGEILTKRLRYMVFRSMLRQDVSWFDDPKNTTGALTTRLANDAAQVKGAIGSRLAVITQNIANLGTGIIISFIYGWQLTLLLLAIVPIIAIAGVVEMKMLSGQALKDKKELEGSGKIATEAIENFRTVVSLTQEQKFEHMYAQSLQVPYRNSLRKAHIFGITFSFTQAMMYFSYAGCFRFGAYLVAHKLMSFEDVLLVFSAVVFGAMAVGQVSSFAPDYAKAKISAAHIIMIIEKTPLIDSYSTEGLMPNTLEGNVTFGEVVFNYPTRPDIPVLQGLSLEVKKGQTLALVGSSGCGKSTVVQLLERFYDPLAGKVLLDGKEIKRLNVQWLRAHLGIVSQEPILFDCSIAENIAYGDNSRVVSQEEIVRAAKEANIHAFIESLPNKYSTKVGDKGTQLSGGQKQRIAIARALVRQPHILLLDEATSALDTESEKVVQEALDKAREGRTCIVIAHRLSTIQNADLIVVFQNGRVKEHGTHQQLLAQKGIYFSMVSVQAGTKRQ
T1 sequence (P33533 whole entry): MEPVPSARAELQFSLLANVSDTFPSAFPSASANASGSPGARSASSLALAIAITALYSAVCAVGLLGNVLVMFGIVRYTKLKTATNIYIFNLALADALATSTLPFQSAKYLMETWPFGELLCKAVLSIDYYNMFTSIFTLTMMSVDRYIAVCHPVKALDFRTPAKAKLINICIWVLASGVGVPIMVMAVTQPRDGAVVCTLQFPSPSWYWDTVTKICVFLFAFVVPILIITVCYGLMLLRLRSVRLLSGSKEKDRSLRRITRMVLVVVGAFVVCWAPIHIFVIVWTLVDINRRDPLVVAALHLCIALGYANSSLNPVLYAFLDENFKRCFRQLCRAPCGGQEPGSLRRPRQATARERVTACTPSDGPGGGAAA
Chain of δ receptors (P32300 whole entry): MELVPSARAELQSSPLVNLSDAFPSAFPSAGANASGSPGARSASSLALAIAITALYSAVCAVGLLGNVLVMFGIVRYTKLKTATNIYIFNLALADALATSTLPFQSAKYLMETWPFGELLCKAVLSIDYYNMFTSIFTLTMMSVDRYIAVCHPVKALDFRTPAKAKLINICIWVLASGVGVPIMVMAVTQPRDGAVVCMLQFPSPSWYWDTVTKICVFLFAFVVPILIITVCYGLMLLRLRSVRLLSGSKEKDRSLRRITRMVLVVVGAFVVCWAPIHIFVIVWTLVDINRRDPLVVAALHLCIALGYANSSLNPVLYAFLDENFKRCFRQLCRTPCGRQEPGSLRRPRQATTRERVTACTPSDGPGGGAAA
Chain of μ receptors (P97266 whole entry, looked up): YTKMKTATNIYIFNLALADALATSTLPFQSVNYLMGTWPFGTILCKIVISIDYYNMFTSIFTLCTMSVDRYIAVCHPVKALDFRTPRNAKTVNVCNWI

SMILES | Ki (δ-opioid receptors [1]; [5]) [nM] | Agonist K1μ/Kiδ (δ-opioid receptors [1]) | Ki (δ-opioid receptors [2]; [6]) [nM] | Antagonist K1μ/Kiδ (δ-opioid receptors [2]) | Ki (μ-opioid receptors; [7]) [nM] | inhibition of hMDR-1 (Pgp), in words (hMDR-1) | also measured
Cc1cc(O)cc(C)c1C[C@H](N)C(=O)N1Cc2ccccc2C[C@H]1CC(=O)O [Compound 1, H-Dmt-βTic-OH] | 0.85 ± 0.2 | 498 | 0.71 ± 0.04 | 590 | 418 ± 86 | – | bioactivity on MVD (δ), in words (δ receptors): highest δ-antagonist functional bioactivities; Kb (δ receptors; [3]): 1.41 nM; Kb (δ receptors; [4]): 1.58 nM; EC50 (μ receptors): > 10000 nM
Cc1cc(O)cc(C)c1CC(CN)C(=O)N1Cc2ccccc2C[C@H]1C(=O)O (stereo partly drawn) [Compound 2, H-αDmt-Tic-OH] | 11.2 ± 3.5 | 155 | 475 ± 37 | 4 | 1740 ± 16 | – | –
Cc1cc(O)cc(C)c1C[C@@H](C(=O)N1Cc2ccccc2C[C@H]1C(=O)O)N1CCCC1 [Compound 4, [des-NH2-α-pyrrolidine-1-yl]-Dmt-Tic-OH] | 1.62 ± 0.19 | 502 | 1.42 ± 0.14 | 573 | 814 ± 65 | – | bioactivity on MVD (δ), in words (δ receptors): detrimental for all bioactivity measurements on MVD; Kb (δ receptors; [4]): 126 nM; MVD Ke (δ receptors; [8]): 121 nM; EC50 (μ receptors): > 10000 nM
Cc1cc(O)cc(C)c1C[C@@H](C(=O)N1Cc2ccccc2C[C@H]1C(=O)O)n1cccc1 [Compound 5, [des-NH2-α-pyrrole-1-yl]-Dmt-Tic-OH] | 16.6 ± 2.5 | 338 | 9.94 ± 2.5 | 562 | 5590 ± 411 | – | bioactivity on MVD (δ), in words (δ receptors): detrimental for all bioactivity measurements on MVD; MVD Ke (δ receptors; [8]): 408 nM
Cc1cc(O)cc(C)c1C[C@H](N)C(=O)N1Cc2ccccc2C[C@H]1C(=O)NN [Compound 6, H-Dmt-Tic-NHNH2] (H-[Dmt]-[Tic]-NHNH2) | 0.99 ± 0.04 | 86 | 42 ± 7.9 | 2 | 85.1 ± 7.3 | – | δ/μ selectivity, in words (δ-opioid receptors [1]): essentially nonselective
COC(=O)[C@@H]1Cc2ccccc2CN1C(=O)[C@@H](N)Cc1c(C)cc(O)cc1C [Compound 8, H-Dmt-Tic-OMe] (H-[Dmt]-[Tic]-OMe) | 9.64 ± 2.2 | 44 | 500 ± 90 | 0.8 | 423 ± 25 | – | δ affinity, in words (δ-opioid receptors [1]): lost high δ affinity; δ/μ selectivity, in words (δ-opioid receptors [1]): weakly μ selective
Cc1cc(O)cc(C)c1C[C@H](N)C(=O)N1Cc2ccccc2C[C@H]1C(=O)Nc1nnn[nH]1 [Compound 10, H-Dmt-Tic-NH-tetrazole-5-yl] | 0.7 ± 0.03 | 53 | 9.75 ± 1.73 | 4 | 37 ± 4.5 | – | bioactivity on MVD (δ), in words (δ receptors): weak δ antagonist; MVD Ke (δ receptors; [8]): 36.3 nM; δ/μ selectivity, in words (δ-opioid receptors [1]): essentially nonselective; bioactivity on GPI (μ), in words (μ receptors): very minimal activity on GPI
Cc1cc(O)cc(C)c1C[C@H](N)C(=O)N1Cc2ccccc2C[C@@H]1C(=O)NC12CC3CC(CC(C3)C1)C2 [Compound 12, H-Dmt-D-Tic-NH-1-adamantane] | – | 0.01 | – | 0.004 | – | – | Kb (δ receptors; [3]): > 10000 nM; Ki (δ-opioid receptors [1]): 24.5 ± 4.9 nM; δ affinity, in words (δ-opioid receptors [1]): lost high δ affinity; δ/μ selectivity, in words (δ-opioid receptors [1]): moderately μ selective; Ki (δ-opioid receptors [2]): 70.3 ± 7.25 nM; Ki (μ-opioid receptors): 0.26 ± 0.08 nM; EC50 (μ receptors): 1680 nM; bioactivity on GPI (μ), in words (μ receptors): μM activity on GPI
CNC(=O)[C@@H]1Cc2ccccc2CN1C(=O)[C@H](Cc1c(C)cc(O)cc1C)N(C)C [Compound 13, N,N(Me)2-Dmt-Tic-NHMe] | 0.54 ± 0.07 | 669 | 0.28 ± 0.02 | 1268 | 359 ± 62 | – | Kb (δ receptors; [4]): 0.407 nM; MVD Ke (δ receptors; [8]): 0.41 nM; bioactivity on GPI (μ), in words (μ receptors): weak μ antagonist; EC50 (μ receptors; μ agonism, read-out: GPI ED50): > 10000 nM; GPI Ke (μ receptors; μ antagonism): 0.39 µM; Kb (μ receptors; μ antagonism, mean (range), read-out: GPI pA2 (range) (converted)): 389 nM
Cc1cc(O)cc(C)c1C[C@@H](C(=O)N1Cc2ccccc2C[C@@H]1C(=O)NC12CC3CC(CC(C3)C1)C2)N(C)C [Compound 16, N,N(Me)2-Dmt-D-Tic-NH-1-adamantane] | – | 0.36 | – | 0.42 | – | – | bioactivity on MVD (δ), in words (δ receptors): greatly reduced bioactivity on MVD; Kb (δ receptors; [4]): 123 nM; MVD Ke (δ receptors; [8]): 128 nM; Ki (δ-opioid receptors [1]): 140 ± 30 nM; δ affinity, in words (δ-opioid receptors [1]): lost high δ affinity; δ/μ selectivity, in words (δ-opioid receptors [1]): weakly μ selective; Ki (δ-opioid receptors [2]): 120 ± 25.9 nM; Ki (μ-opioid receptors): 50.5 ± 2.6 nM; EC50 (μ receptors): 4480 nM; bioactivity on GPI (μ), in words (μ receptors): μM activity on GPI
CCN(CC)[C@@H](Cc1c(C)cc(O)cc1C)C(=O)N1Cc2ccccc2C[C@H]1C(=O)O [Compound 17, N,N(Et)2-DMT-Tic-OH] | – | 35.3 ± 1.96 (3-5) | – | – | – | – | Ki (δ-opioid receptors [1]): 0.92 ± 0.19 nM
CNC(=O)[C@H](C)NC(=O)[C@@H]1Cc2ccccc2CN1C(=O)[C@@H](N)Cc1c(C)cc(O)cc1C [Compound 18, H-Dmt-Tic-Ala-NHMe] (H-[Dmt]-[Tic]-Ala-NHMe) | 0.058 ± 0.01 | 100 | 0.12 ± 0.04 | 47 | 5.75 ± 0.72 | – | EC50 (δ receptors): 1290 nM; bioactivity on MVD (δ), in words (δ receptors): very weak δ and μ agonism; EC50 (μ receptors): 290 nM; bioactivity on GPI (μ), in words (μ receptors): very weak δ and μ agonism
COC(=O)[C@H](C)NC(=O)[C@@H]1Cc2ccccc2CN1C(=O)[C@@H](N)Cc1c(C)cc(O)cc1C [Compound 19, H-Dmt-Tic-Ala-OMe] (H-[Dmt]-[Tic]-Ala-OMe) | 0.23 ± 0.09 | 48 | 0.14 ± 0.04 | 83 | 11.3 ± 1.87 | – | –
C[C@@H](NC(=O)[C@@H](N)Cc1ccc(O)cc1)C(=O)NCC(=O)N(C)[C@@H](Cc1ccccc1)C(=O)NCCO [DAGO, H-Tyr-D-Ala-Gly-N-MePhe-Gly-ol] | – | – | – | – | – | inactive; also recorded: lack of inhibition | –
Cc1cc(O)cc(C[C@H](N)C(=O)N[C@H](Cc2ccccc2)C(=O)NCC(=O)N[C@H](C(=O)N[C@H](C(N)=O)C(C)C)C(C)C)c1C [DPD, H-Dmt-D-Phe-Gly-Val-Val-NH2] | – | – | – | – | – | inactive | –
CC1(C)SSC(C)(C)[C@@H](NC(=O)[C@@H](N)Cc2ccc(O)cc2)C(=O)NCC(=O)N[C@@H](Cc2ccccc2)C(=O)N[C@H]1C(=O)O [DPDPE, H-Tyr-[D-Pen-Gly-Phe-D-Pen] enkephalin] | – | – | – | – | – | inactive; also recorded: lack of inhibition | –
Cc1cc(O)cc(C)c1CC(N)C(=O)N1Cc2ccccc2C[C@H]1C(=O)O (stereo partly drawn) [H-(R,S)Dmt-Tic-OH, reference compound] (H-[ξDmt]-[Tic]-OH) | – | – | – | – | 1160 ± 327 | – | Kb (δ receptors): 6.76 nM; EC50 (μ receptors; μ agonism, read-out: GPI ED50): > 10000 nM
C[C@@H](NC(=O)[C@@H](N)Cc1ccc(O)cc1)C(=O)N[C@@H](Cc1ccccc1)C(=O)N[C@@H](Cc1c[nH]c2ccccc12)C(=O)N[C@@H](Cc1ccc(O)cc1)C(=O)N1CCC[C@H]1C(=O)N[C@@H](CCCCN)C(=O)O [[Trp^4,Lys-OH^7]DER, H-Tyr-D-Ala-Phe-Trp-Tyr-Pro-Lys-OH] (H-Y[dA]FWYPK-OH) | – | – | – | – | – | inactive | –
C[C@@H](NC(=O)[C@@H](N)Cc1ccc(O)cc1)C(=O)N[C@@H](Cc1ccccc1)C(=O)N[C@@H](Cc1c[nH]c2ccccc12)C(=O)N[C@@H](Cc1ccc(O)cc1)C(N)=O [[Trp^4,Tyr^5]DER, H-Tyr-D-Ala-Phe-Trp-Tyr-NH2] (H-Y[dA]FWY-NH2) | – | – | – | – | – | inactive | –
CC(C)[C@H](NC(=O)[C@H](CCC(=O)O)NC(=O)[C@H](Cc1ccccc1)NC(=O)[C@@H](C)NC(=O)[C@@H](N)Cc1ccc(O)cc1)C(=O)N[C@H](C(=O)NCC(N)=O)C(C)C [deltorphin B, H-Tyr-D-Ala-Phe-Glu-Val-Val-Gly-NH2] | – | – | – | – | – | inactive | –
Oc1ccc2c3c1O[C@H]1c4[nH]c5ccccc5c4C[C@@]4(O)[C@@H](C2)N(CC2CC2)CC[C@]314 [naltrindole] | – | – | – | – | – | inhibition that dissipated at high concentrations | –

Source: patent publication US6916905B2, “Dmt-Tic di-and tri-peptidic derivatives and related compositions and methods of use” (The United States of America as represented by the …, priority 2000, dated 2005)
